Consider 36 compounds from US20020161007A1, “Non-steroidal modulators of estrogen receptors” (priority 2001, published 2002).

One experiment concerns human breast tumor MCF-7 cell line. Put plainly: MTT antiproliferative assay on human MCF-7 cell line. It counts as cell-based. Conditions: Homo sapiens, MCF7; MTT inhibition of proliferation, mean of triplicate determinations; read-out: IC50. An excerpt: EXAMPLE 14—Determination of the antiproliferative effects on human MCF-7 cell lines.
MTT is a yellow tetrazolium salt which is taken up only by metabolically active cells and subsequently cleaved by mitochondrial dehydrogenases to yield a purple crystalline formazan dye. On solubilisation this purple color may be read spectrophotometrically at 570 nm. The absorbance measured at this wavelength is directly proportional to the amount of viable cells present.
Procedure : The human breast tumor MCF-7 cell line was cultured in Eagles minimum essential medium in a 5% CO2 atmosphere with 10% fetal calf serum. The medium was supplemented with 1% non-essential amino acids. The cells were trypsinized and seeded at a density of 1.5×10^4 into a 96-well plate and incubated at 37° C., 5% CO2 atmosphere for 24 h. […] Control wells contained the equivalent volume of the vehicle ethanol (1% v/v). The culture medium was then removed and the cells washed with 100 μl PBS and 50 μl MTT added, to reach a final concentration of 1 mg/ml MTT added. The cells were incubated for 2 h in darkness at […]. At this point solubilisation was begun through the addition of 200 μl DMSO and the cells maintained at room temperature in darkness for 20 min to ensure thorough color diffusion before reading the absorbance. The absorbance value of control cells (no added compound) was set to 100% cell viability. Graphs of absorbance versus cell density per well were prepared to assess cell viability.
On the technique in general: Formazan colour is commonly taken as a measure of viable cells.
As to `CCC(Cc1ccccc1)=C(c1ccccc1)c1ccc(NCCOC)cc1` [Compound 27, [4-(2-Benzyl-1-phenylbut-1-enyl)-phenyl]-(2-methoxyethyl)-amine], the IC50 (commonly the concentration that gives 50% inhibition) was 33.7 µM. Same read-out and setting: for `CCOCCNc1ccc(C(=C(CC)Cc2ccccc2)c2ccccc2)cc1` [Compound 28, [4-(2-Benzyl-1-phenylbut-1-enyl)-phenyl]-(2-ethoxyethyl)-amine] the value was 36.8 µM. The same measure, in the same setting: for `CCCOCCNc1ccc(C(=C(CC)Cc2ccccc2)c2ccccc2)cc1` [Compound 29, [4-(2-Benzyl-1-phenylbut-1-enyl)-phenyl]-(2-propoxyethyl)-amine] the value was 46.9 µM; for `CCC(Cc1ccccc1)=C(c1ccccc1)c1ccc(NCCCOC)cc1` [Compound 30, [4-(2-Benzyl-1-phenylbut-1-enyl)-phenyl]-(3-methoxypropyl)-amine], 35.4 µM; for `CCOCCCNc1ccc(/C(=C(/CC)Cc2ccccc2)c2ccccc2)cc1` [Compound 31, [4-(2-benzyl-1-phenylbut-1-enyl)-phenyl]-(3-ethoxypropyl)-amine], 14.1 µM. Still for that read-out and setting: for `CCCOCCCNc1ccc(C(=C(CC)Cc2ccccc2)c2ccccc2)cc1` [Compound 32, [4-(2-Benzyl-1-phenylbut-1-enyl)-phenyl]-(3-propoxypropyl)-amine] the value was 23.3 µM; for `CCC(Cc1ccccc1)=C(c1ccccc1)c1ccc(NCCO)cc1` [Compound 33, 2-[4-(2-Benzyl-1-phenylbut-1-enyl)-phenylamino]-ethanol], 39.5 µM; for `CCC(Cc1ccccc1)=C(c1ccccc1)c1ccc(NCCCO)cc1` [Compound 34, 3-[4-(2-Benzyl-1-phenylbut-1-enyl)-phenylamino]-propan-1-ol], 34 µM. As to `CCC(Cc1ccccc1)=C(c1ccccc1)c1ccc(OCCO)cc1` [Compound 35, 2-[4-(2-Benzyl-1-phenylbut1enyl)-phenoxy]-ethanol], the IC50 was determined as 24.9 µM. Consider `CCC(Cc1ccccc1)=C(c1ccccc1)c1ccc(OCCCO)cc1` [Compound 36, 3-[4-(2-Benzyl-1-phenylbut-1-enyl)-phenoxy]-propan-1-ol], for which the IC50 worked out at 20.2 µM. Consider `CCC(Cc1ccccc1)=C(c1ccc(NCCOC)cc1)c1ccc(OC)cc1` [Compound 37, {4-[2-Benzyl-1-(4-methoxyphenyl)-but-1-enyl]-phenyl}-(2-methoxyethyl)-amine], for which the IC50 was found to be 34.4 µM. Consider `CCC(Cc1ccc(OC)cc1)=C(c1ccc(NCCOC)cc1)c1ccc(OC)cc1` [Compound 38, {4-[2-(4-methoxybenzyl)-1-(4-methoxyphenyl)-but-1-enyl]-phenyl}-(2-methoxyethyl)-amine], for which the IC50 was determined as 51.8 µM. With `CCC(Cc1ccc(OC)cc1)=C(c1ccccc1)c1ccc(NCCOC)cc1` [Compound 39, {4-[2-(4-methoxybenzyl)-1-phenylbut-1-enyl]-phenyl}-(2-methoxyethyl)-amine], the IC50 was 49.5 µM. In the case of `CCC(Cc1ccccc1)=C(c1ccccc1)c1ccc(OCCOC)cc1` [Compound 40, 1-(2-Benzyl-1-phenylbut-1-enyl)-4-(2-methoxyethoxy)-benzene], the IC50 was 41.7 µM. As to `CCC(Cc1ccc(O)cc1)=C(c1ccccc1)c1ccc(NCCOC)cc1` [Compound 41, 4-{2-Ethyl-3-[4-(2-methoxyethylamino)-phenyl]-3-phenylallyl}-phenol], the half-maximal inhibitory concentration (IC50) is 32.4 µM.

In the case of `CCC(Cc1ccccc1)=C(c1ccccc1)c1ccc(NCCN(C)C)cc1` [Compound 42, N′-[4-(2-Benzyl-1-phenylbut-1-enyl)-phenyl]-N,N-dimethylethane-1,2-diamine], the IC50 came to 13.7 µM.

Still in this experiment, the particulars now being: Homo sapiens, MCF7; MTT inhibition of proliferation, mean of triplicate determinations; read-out: IC50 Range.
For `CCC(Cc1ccccc1)=C(c1ccccc1)c1ccc(OCCN(CC)CC)cc1` [Compound 2, 2-Benzyl-1-phenyl-1-[4-(diethylaminoethoxy)phenyl]but-1-ene], the half-maximal inhibitory concentration (IC50) is 10 to 15 µM. `CC/C(=C(\Cc1ccccc1)c1ccc(OCCN2CCCC2)cc1)c1ccccc1` [Compound 8, 1-Benzyl-2-phenyl-[1-(4-pyrrolidinylethoxy)phenyl]-but-1-ene]: the IC50 was 10 to 15 µM. `CC/C(=C(\Cc1ccccc1)c1ccc(OCCN2CCCCC2)cc1)c1ccccc1` [Compound 9, 1-Benzyl-2-phenyl-[1-(4-pipyridinylethoxy)phenyl]-but-1-ene]: the IC50 was in the range of 70 to 80 µM. `CC/C(=C(\Cc1ccccc1)c1ccc(OCCN2CCOCC2)cc1)c1ccccc1` [Compound 10, 1-Benzyl-2-phenyl[1-(5-morpholinylethoxy)phenyl]but-1-ene]: the 50% inhibitory concentration (IC50) was in the range of 1 to 5 µM. For the compound `CC/C(=C(\Cc1ccccc1)c1ccccc1)c1ccc(OCCN(C)C)cc1` [Compound 11, 1-Benzyl-1-phenyl-2-[(4-dimethylaminoethoxy)phenyl]but-1-ene], the IC50 was in the range of 115 to 120 µM. With `CC/C(=C(/Cc1ccc(OCCN(C)C)cc1)c1ccccc1)c1ccccc1` [Compound 16], the half-maximal inhibitory concentration (IC50) was 25 to 30 µM. As for `CCC(Cc1ccccc1)=C(c1ccc(O)cc1)c1ccc(OCCN(C)C)cc1` [Compound 24, 4-{2-Benzyl-1-[4-(2-dimethylamino-ethoxy)-phenyl]-but-1-enyl}-phenol], the IC50 was 0.01 to 0.1 µM. Take `CC/C(Cc1ccccc1OC)=C(/c1ccc(OCCN2CCCC2)cc1)c1ccc(OC(=O)C(C)(C)C)cc1` [Compound 26, 2,2-Dimethyl-propionic acid 4-{2-(2-methoxybenzyl)-1-[4-(2-pyrrolidin-1-yl-ethoxy)-phenyl]-but-1-enyl}-phenyl ester]: the IC50 lay within 1 to 10 µM.

Still in this experiment, the particulars now being: MTT inhibition of proliferation, mean of triplicate determinations; read-out: IC50 Range.
With “1,2-Diphenyl-2-[(4-pipyridinylethoxy)benzyl]but-1-ene [Compound 19]”, the IC50 lay in the range of 65 to 70 µM. On to `CCC(Cc1ccccc1)=C(c1ccccc1)c1ccc(OCCN2CCCC2)cc1` [Compound 3, 2-Benzyl-1-phenyl-1-[4-(pyrrolidinylethoxy)phenyl]but-1-ene], for which the IC50 lay within 1 to 5 µM. With `CCC(Cc1ccccc1)=C(c1ccccc1)c1ccc(OCCN2CCOCC2)cc1` [Compound 5, 2-Benzyl-1-phenyl-1-[4-(morpholinylethoxy)phenyl]but-1-ene], the IC50 lay within 40 to 50 µM.

On to `CCC(=C(Cc1ccccc1)c1ccc(OCCN(CC)CC)cc1)c1ccccc1` [Compound 7, 1-Benzyl-2-phenyl-[1-(4-diethylaminoethoxy)phenyl]-but-1-ene], for which the IC50 is 15 to 20 µM. On to `CCC(=C(Cc1ccccc1)c1ccccc1)c1ccc(OCCN(CC)CC)cc1` [Compound 12, 1-Benzyl-1-phenyl-2-[(4-diethylaminoethoxy)phenyl]but-1-ene], for which the 50% inhibitory concentration (IC50) fell in the range of 20 to 25 µM. Regarding `CCC(=C(Cc1ccccc1)c1ccccc1)c1ccc(OCCN2CCCC2)cc1` [Compound 13, 1-Benzyl-1-phenyl-2-[(4-pyrrolidinylethoxy)phenyl]but-1-ene], the half-inhibitory concentration (IC50) lay within 20 to 25 µM. Still for that read-out and setting: for `CCC(=C(Cc1ccccc1)c1ccccc1)c1ccc(OCCN2CCOCC2)cc1` [Compound 15, 1-Benzyl-1-phenyl-2-[(4-morpholinylethoxy)phenyl]but-1-ene] the value was 50 to 55 µM; for `CCC(=C(Cc1ccccc1OCCN(CC)CC)c1ccccc1)c1ccccc1` [Compound 17, 1,2-Diphenyl-2-[2-(diethylaminoethoxy)benzyl]but-1-ene], 55 to 60 µM. On the same count and under the same terms, the figure for `CCC(=C(Cc1ccc(OCCN2CCCC2)cc1)c1ccccc1)c1ccccc1` [Compound 18] is 140 to 145 µM; for `CCC(Cc1ccccc1)=C(c1ccc(OCCN2CCCC2)cc1)c1ccc(OC(=O)C(C)(C)C)cc1` [Compound 21] it is 1 to 10 µM. Turning to `CCC(Cc1ccccc1)=C(c1ccc(OCCN(C)C)cc1)c1ccc(OC(=O)C(C)(C)C)cc1` [Compound 22], the IC50 was in the range of 10 to 50 µM. Regarding `CCC(Cc1ccccc1)=C(c1ccc(OCCN2CCOCC2)cc1)c1ccc(OC(=O)C(C)(C)C)cc1` [Compound 23], the concentration for half-maximal inhibition (IC50) was 0.1 to 1 µM.
